Where a name gives a salt, the structure may show the parent alone. Read-outs that look alike come from different tables or passages of the source. Values belong to the compound of their own block, whether it stands above or below them.
Tests used:
gastric acid secretion = test: Inhibiting effect in vivo on gastric acid secretion in conscious dog (histamine-stimulated, chronic gastric fistula dog); settings: inhibition during the 2nd hour after dose
Protocol: Chronic gastric fistula dog were used. These dogs have been surgically provided with a gastric cannula in the stomach and a duodenal fistula, used for direct intraduodenal administration of test compounds. Following a 4 weeks' recovery period after surgery, tests were performed once a week on each dog. Food and water were withdrawn 18 hours before each test.
Gastric acid secretion was induced by a continuous 4 h infusion of histamine at individual doses (400-600 nmol/kg^.h,iv) resulting in approximately 90% of maximal secretion of gastric acid. After 1 h of histamine stimulation, test compounds or vehicle were administered, either iv or im (vehicle = 0.5% saline) or id (vehicle = 0.5% Methocel®, 90 HG 15000, Dow Chem Corp.) via a catheter through the duodenal fistula. The gastric juice was collected by free flow from the gastric cannula in consecutive 30 min. samples during the duration of the histamine infusion. The samples were titrated to pH 7.0 with 0.1 M or 1.0 M NaOH using an automatic titrator and the acid output was calculated. The acid output during the periods after administration of test compound or vehicle was expressed as the fraction of the output during the period preceding these administrations, and the per cent inhibition of acid secretion was calculated by comparing in each dog the fractional responses induced by the test compound to the corresponding vehicle-induced fractional responses.
The test results given in Table 5 below represent inhibition during the 2nd hour after dose.

Solubility in water = format: physicochemical
Protocol: By comparison, the sodium salt of omeprazole, 5-methoxy-2-[[(4-methoxy 3-5-dimethyl-pyridinyl)methyl] sulfinyl]-1-H-benzimidazole, has a solubility of 0.4 mg per ml at pH 9, a pH considered suitable for i.v. administration.

[1] = Chemical stability in aqueous buffer solution at different pH, followed kinetically; format: physicochemical
[2] = pH 5, 37°C, aqueous buffer solution, low concentration, read-out: t 1/2 (hours) pH 5 (converted)
[3] = pH 7.3, 37°C, aqueous buffer solution, low concentration, read-out: t 1/2 (hours) pH 7.3 (converted)

Structure (SMILES): COc1c(C)cnc(C[S+]([O-])c2nc3ccccc3n2COC(=O)CCC(=O)N2CCN(C)CC2)c1C (stereo not drawn) [Example 3]
- Inhibition of acid secretion (%) (gastric acid secretion; 0,3 μmol/kg iv): 72 (1) %
- Inhibition of acid secretion (%) (gastric acid secretion; 1 μmol/kg iv): 98 (1) %
- Inhibition of acid secretion (%) (gastric acid secretion; 2 μmol/kg id): 100 (1) %
- solubility (Solubility in water; water): > 60 mg/mL
- half-life [1, 2]: 112 h
- half-life [1, 3]: 32 h

Structure (SMILES): COc1ccc2[nH]c([S+]([O-])Cc3ncc(C)c(OC)c3C)nc2c1 (stereo not drawn) [Omeprazole-Na^⊕]
- half-life ([1]; pH 2, 37°C, aqueous buffer solution, low concentration, read-out: t 1/2 (hours) pH 2 (converted)): 0.07 h
- half-life [1, 2]: 0.04 h
- half-life [1, 3]: 20 h

Structure (SMILES): COc1ccc2[nH]c([S+]([O-])Cc3ncc(C)c(OC)c3C)nc2c1 (stereo not drawn) [omeprazole, 5-methoxy-2-[[(4-methoxy 3-5-dimethyl-pyridinyl)methyl]sulfinyl]-1-H-benzimidazole, reference compound]
- solubility (Solubility in water; at pH 9, a pH considered suitable for i.v. administration, sodium salt, read-out: solubility): 0.4 mg/mL

Structure (SMILES): CCOP(=O)(O)OCn1c([S+]([O-])Cc2ncc(C)c(OC)c2C)nc2ccc(OC)cc21 (stereo not drawn) [Example 33]
- Inhibition of acid secretion (%) (gastric acid secretion; 1 μmol/kg id): 97 (1) %
- Inhibition of acid secretion (%) (gastric acid secretion; 4 μmol/kg id): 98 (1) %
- t 1/2 (hours) pH 5 ([1]; pH 5, 37°C, aqueous buffer solution, low concentration): No decomp. after 30 h

Structure (SMILES): COc1ccc2nc([S+]([O-])Cc3ncc(C)c(OC)c3C)n(COP(=O)(O)O)c2c1 (stereo not drawn) [Example 29]
- Inhibition of acid secretion (%) (gastric acid secretion; 0,3 μmol/kg iv): 45 (1) %
- Inhibition of acid secretion (%) (gastric acid secretion; 0,5 μmol/kg iv): 60 (1) %
- Inhibition of acid secretion (%) (gastric acid secretion; 1 μmol/kg im): 90 (1) %
- Inhibition of acid secretion (%) (gastric acid secretion; 1 μmol/kg iv): 80-85 (2) %
- solubility (Solubility in water; water): > 60 mg/mL
- degraded at 600 h ([1]; aqueous buffer, after 25 days at 22° at the concentration 50 mg/ml, footnote to the pH 9.5 value, read-out: decomposition): 12%
- half-life [1, 3]: 74 h
- half-life ([1]; pH 9.5, 37°C, aqueous buffer solution, low concentration, read-out: t 1/2 (hours) pH 9.5): > 600 h

The next lines start with results.

- half-life ([1]; pH 3, 37°C, aqueous buffer solution, low concentration, read-out: t 1/2 (hours) pH 3 (converted)): 80 h
- half-life [1, 2]: 100 h
- half-life [1, 3]: 40 h
Structure (SMILES): COc1ccc2c(c1)nc([S+]([O-])Cc1ncc(C)c(OC)c1C)n2COC(=O)CCC(=O)N1CCN(C)CC1 (stereo not drawn) [Example 34]

- half-life [1, 3]: 51 h
Structure (SMILES): COc1ccc2c(c1)nc([S+]([O-])Cc1ncc(C)c(OC)c1C)n2COP(=O)(O)O (stereo not drawn) [Example 32, phosphoric acid, [5-methoxy-[2[[(4-methoxy-3,5-dimethyl-2-pyridinyl)methyl]sulfinyl]-1-H-benzimidazole-1-yl]]methyl ester, disodium salt]
- Inhibition of acid secretion (%) (gastric acid secretion; 0,3 μmol/kg iv): 55 (1) %
- Inhibition of acid secretion (%) (gastric acid secretion; 0,6 μmol/kg iv): 53 (1) %

Source: EP0510719A1, “Benzimidazole derivatives substituted with a radical group and their use for inhibiting gastric acid secretion” (priority 1986, dated 1988)
